ChEMBL document CHEMBL5584237, “Design, synthesis, biological evaluation, and in silico studies of novel pyridopyridine derivatives as anticancer candidates targeting FMS kinase” (Eur J Med Chem, 2024)
pIC50: −log10 of the molar value. Activity calls are given as the source filed them. The rule behind the calls is not given here.

Assays:
[1] = tested on: CCRF-CEM; test: Antiproliferative activity against human CCRF-CEM cells assessed as cell growth inhibition; type: functional
[2] = tested on: K562; test: Antiproliferative activity against human K562 cells assessed as cell growth inhibition; type: functional
[3] = tested on: MOLT-4; test: Antiproliferative activity against human MOLT-4 cells assessed as cell growth inhibition; type: functional
[4] = tested on: HCT-116; test: Antiproliferative activity against human HCT-116 cells assessed as cell growth inhibition; type: functional
[5] = tested on: SF-295; test: Antiproliferative activity against human SF-295 cells assessed as cell growth inhibition; type: functional
[6] = tested on: SNB-75; test: Antiproliferative activity against human SNB-75 cells assessed as cell growth inhibition; type: functional
[7] = tested on: LOX IMVI; test: Antiproliferative activity against human LOX IMVI cells assessed as cell growth inhibition; type: functional
[8] = tested on: Malme-3M; test: Antiproliferative activity against human Malme-3M cells assessed as cell growth inhibition; type: functional
[9] = tested on: M14; test: Antiproliferative activity against human M14 cells assessed as cell growth inhibition; type: functional
[10] = tested on: OVCAR-3; test: Antiproliferative activity against human OVCAR-3 cells assessed as cell growth inhibition; type: functional
[11] = tested on: OVCAR-4; test: Antiproliferative activity against human OVCAR-4 cells assessed as cell growth inhibition; type: functional
[12] = tested on: 786-0; test: Antiproliferative activity against human 786-0 cells assessed as cell growth inhibition; type: functional
[13] = tested on: CAKI-1; test: Antiproliferative activity against human CAKI-1 cells assessed as cell growth inhibition; type: functional
[14] = tested on: SN12C; test: Antiproliferative activity against human SN12C cells assessed as cell growth inhibition; type: functional
[15] = tested on: DU-145; test: Antiproliferative activity against human DU-145 cells assessed as cell growth inhibition; type: functional
[16] = tested on: MDA-MB-231; test: Antiproliferative activity against human MDA-MB-231 cells assessed as cell growth inhibition; type: functional
[17] = Cytotoxicity against human HS27 cells assessed as reduction in cell growth measured after 48 hrs by MTT assay; type: toxicity, cell-based
[18] = Selectivity index, ratio of IC50 for human WI-38 cells to IC50 for human SR cells; type: toxicity; details: WI-38 cells and SR cells, read-out: Ratio IC50
[19] = Selectivity index, ratio of IC50 for human WI-38 cells to IC50 for human HCT-116 cells; type: toxicity; details: WI-38 cells and HCT-116 cells, read-out: Ratio IC50
[20] = Selectivity index, ratio of IC50 for human WI-38 cells to IC50 for human HT-29 cells; type: toxicity; details: WI-38 cells and HT-29 cells, read-out: Ratio IC50
[21] = Selectivity index, ratio of IC50 for human WI-38 cells to IC50 for human SW-620 cells
[22] = Selectivity index, ratio of IC50 for human WI-38 cells to IC50 for human SNB-75 cells
[23] = Selectivity index, ratio of IC50 for human WI-38 cells to IC50 for human LOX IMVI cells
[24] = Selectivity index, ratio of IC50 for human WI-38 cells to IC50 for human MDA-MB-435 cells
[25] = Selectivity index, ratio of IC50 for human WI-38 cells to IC50 for human CAKI-1 cells
[26] = Selectivity index, ratio of IC50 for human WI-38 cells to IC50 for human SN12C cells
[27] = Selectivity index, ratio of IC50 for human WI-38 cells to IC50 for human PC-3 cells; type: toxicity; details: WI-38 cells and PC-3 cells, read-out: Ratio IC50
[28] = Selectivity index, ratio of IC50 for human WI-38 cells to IC50 for human MDA-MB-468 cells; type: toxicity; details: WI-38 cells and MDA-MB-468 cells, read-out: Ratio IC50
[29] = Selectivity index, ratio of IC50 for human HS27 cells to IC50 for human SR cells
[30] = Selectivity index, ratio of IC50 for human HS27 cells to IC50 for human HCT-116 cells
[31] = Selectivity index, ratio of IC50 for human HS27 cells to IC50 for human SW-620 cells
[32] = Selectivity index, ratio of IC50 for human HS27 cells to IC50 for human SF-539 cells
[33] = Selectivity index, ratio of IC50 for human HS27 cells to IC50 for human Malme-3M cells
[34] = Selectivity index, ratio of IC50 for human HS27 cells to IC50 for human M14 cells
[35] = Selectivity index, ratio of IC50 for human HS27 cells to IC50 for human MDA-MB-435 cells
[36] = Selectivity index, ratio of IC50 for human HS27 cells to IC50 for human SK-MEL-28 cells
[37] = Selectivity index, ratio of IC50 for human HS27 cells to IC50 for human OVCAR-4 cells
[38] = Selectivity index, ratio of IC50 for human HS27 cells to IC50 for human CAKI-1 cells
[39] = Selectivity index, ratio of IC50 for human HS27 cells to IC50 for human RXF 393 cells
[40] = Selectivity index, ratio of IC50 for human HS27 cells to IC50 for human SN12C cells
[41] = Selectivity index, ratio of IC50 for human HS27 cells to IC50 for human DU-145 cells
[42] = Selectivity index, ratio of IC50 for human HS27 cells to IC50 for human MCF7 cells
[43] = Selectivity index, ratio of IC50 for human HS27 cells to IC50 for human MDA-MB-231 cells
[44] = Selectivity index, ratio of IC50 for human HS27 cells to IC50 for human Hs-578T cells
[45] = tested on: Hep 3B2; test: Induction of apoptosis in human Hep3B cells assessed as increase in cleaved PARP expression at 3.38 uM measured after 48 hrs by Western blot analysis relative to control; type: functional
[46] = tested on: Hep 3B2; test: Cell cycle arrest in human Hep3B cells assessed as downregulation of cyclin D1 expression at 3.38 uM measured after 48 hrs by Western blot analysis; type: functional, cell-based
[47] = tested on: Hep 3B2; test: Cell cycle arrest in human Hep3B cells assessed as downregulation of cyclin D1 expression at 0.5 x IC50 to IC50 measured after 48 hrs by Western blot analysis; type: functional, cell-based
[48] = tested on: HepG2; test: cells; details: Homo sapiens, HepG2, 48 h
Description: Antiproliferative activity against human HepG2 cells assessed as cell growth inhibition measured after 48 hrs by MTT assay

[49] = in vitro; details: human, WI-38 cells and A549 cells
Description: Selectivity index, ratio of IC50 for human WI-38 cells to IC50 for human A549 cells

CCN1CCN(c2ccc(NC(=O)Nc3ccc(-c4cc(C(=O)NC(C)C)c5ncccc5n4)cc3)cc2C(F)(F)F)CC1
TGI [1]: 3.1 µM | GI50 [2]: 1 µM | TGI [2]: 34.5 µM | TGI [3]: 30.6 µM | GI50 [4]: 0.64 µM | TGI [4]: 1.3 µM | GI50 [5]: 0.58 µM | TGI [5]: 1.14 µM | GI50 [6]: 0.98 µM | TGI [6]: 5.14 µM | GI50 [7]: 0.56 µM | TGI [7]: 1.05 µM | GI50 [8]: 0.58 µM | TGI [8]: 1.05 µM | GI50 [9]: 0.72 µM | TGI [9]: 1.9 µM | GI50 [10]: 0.64 µM | TGI [10]: 1.36 µM | GI50 [11]: 0.88 µM | TGI [11]: 2.45 µM | GI50 [12]: 0.5 µM | TGI [12]: 1.03 µM | GI50 [13]: 0.8 µM | TGI [13]: 2.08 µM | GI50 [14]: 0.67 µM | TGI [14]: 1.38 µM | GI50 [15]: 0.75 µM | TGI [15]: 1.58 µM | GI50 [16]: 0.61 µM | TGI [16]: 1.18 µM | IC50 at 48 h [17]: 8.4 µM | selectivity ratio [18]: 15.4 | selectivity ratio [19]: 18.8 | selectivity ratio [20]: 18.8 | Ratio IC50 [21]: 18.84 | Ratio IC50 [22]: 8.71 | Ratio IC50 [23]: 8.62 | Ratio IC50 [24]: 8.62 | Ratio IC50 [25]: 10.52 | Ratio IC50 [26]: 10.52 | selectivity ratio [27]: 21.6 | selectivity ratio [28]: 10.1 | Ratio IC50 [29]: 8 | Ratio IC50 [30]: 9.77 | Ratio IC50 [31]: 9.77 | Ratio IC50 [32]: 4.52 | Ratio IC50 [33]: 4.47 | Ratio IC50 [34]: 4.47 | Ratio IC50 [35]: 4.47 | Ratio IC50 [36]: 4.47 | Ratio IC50 [37]: 3.05 | Ratio IC50 [38]: 5.45 | Ratio IC50 [39]: 5.45 | Ratio IC50 [40]: 5.45 | Ratio IC50 [41]: 11.2 | Ratio IC50 [42]: 5.22 | Ratio IC50 [43]: 5.22 | Ratio IC50 [44]: 5.22 | fold change (FC) [45]: 27 | Activity [46]: Active | Activity [47]: inactive | pIC50 [48]: 6.34 | selectivity ratio [49]: 6.4
